In the assay the target is human recombinant LRRK2 protein (Homo sapiens, UniProt Q5S007). The assay can be described thus: LRRK2 kinase activity assay (ADP-Glo, LRRKtide peptide). Type of assay: biochemical. As to conditions: human recombinant LRRK2 wt, LRRKtide peptide and ATP, 1 h at 37° C. As to the method: The inhibition of LRRK2 kinase was assessed using human recombinant LRRK2 protein in an in vitro peptide-based kinase assay.
human recombinant LRRK2 protein, sequence (Q5S007 whole entry): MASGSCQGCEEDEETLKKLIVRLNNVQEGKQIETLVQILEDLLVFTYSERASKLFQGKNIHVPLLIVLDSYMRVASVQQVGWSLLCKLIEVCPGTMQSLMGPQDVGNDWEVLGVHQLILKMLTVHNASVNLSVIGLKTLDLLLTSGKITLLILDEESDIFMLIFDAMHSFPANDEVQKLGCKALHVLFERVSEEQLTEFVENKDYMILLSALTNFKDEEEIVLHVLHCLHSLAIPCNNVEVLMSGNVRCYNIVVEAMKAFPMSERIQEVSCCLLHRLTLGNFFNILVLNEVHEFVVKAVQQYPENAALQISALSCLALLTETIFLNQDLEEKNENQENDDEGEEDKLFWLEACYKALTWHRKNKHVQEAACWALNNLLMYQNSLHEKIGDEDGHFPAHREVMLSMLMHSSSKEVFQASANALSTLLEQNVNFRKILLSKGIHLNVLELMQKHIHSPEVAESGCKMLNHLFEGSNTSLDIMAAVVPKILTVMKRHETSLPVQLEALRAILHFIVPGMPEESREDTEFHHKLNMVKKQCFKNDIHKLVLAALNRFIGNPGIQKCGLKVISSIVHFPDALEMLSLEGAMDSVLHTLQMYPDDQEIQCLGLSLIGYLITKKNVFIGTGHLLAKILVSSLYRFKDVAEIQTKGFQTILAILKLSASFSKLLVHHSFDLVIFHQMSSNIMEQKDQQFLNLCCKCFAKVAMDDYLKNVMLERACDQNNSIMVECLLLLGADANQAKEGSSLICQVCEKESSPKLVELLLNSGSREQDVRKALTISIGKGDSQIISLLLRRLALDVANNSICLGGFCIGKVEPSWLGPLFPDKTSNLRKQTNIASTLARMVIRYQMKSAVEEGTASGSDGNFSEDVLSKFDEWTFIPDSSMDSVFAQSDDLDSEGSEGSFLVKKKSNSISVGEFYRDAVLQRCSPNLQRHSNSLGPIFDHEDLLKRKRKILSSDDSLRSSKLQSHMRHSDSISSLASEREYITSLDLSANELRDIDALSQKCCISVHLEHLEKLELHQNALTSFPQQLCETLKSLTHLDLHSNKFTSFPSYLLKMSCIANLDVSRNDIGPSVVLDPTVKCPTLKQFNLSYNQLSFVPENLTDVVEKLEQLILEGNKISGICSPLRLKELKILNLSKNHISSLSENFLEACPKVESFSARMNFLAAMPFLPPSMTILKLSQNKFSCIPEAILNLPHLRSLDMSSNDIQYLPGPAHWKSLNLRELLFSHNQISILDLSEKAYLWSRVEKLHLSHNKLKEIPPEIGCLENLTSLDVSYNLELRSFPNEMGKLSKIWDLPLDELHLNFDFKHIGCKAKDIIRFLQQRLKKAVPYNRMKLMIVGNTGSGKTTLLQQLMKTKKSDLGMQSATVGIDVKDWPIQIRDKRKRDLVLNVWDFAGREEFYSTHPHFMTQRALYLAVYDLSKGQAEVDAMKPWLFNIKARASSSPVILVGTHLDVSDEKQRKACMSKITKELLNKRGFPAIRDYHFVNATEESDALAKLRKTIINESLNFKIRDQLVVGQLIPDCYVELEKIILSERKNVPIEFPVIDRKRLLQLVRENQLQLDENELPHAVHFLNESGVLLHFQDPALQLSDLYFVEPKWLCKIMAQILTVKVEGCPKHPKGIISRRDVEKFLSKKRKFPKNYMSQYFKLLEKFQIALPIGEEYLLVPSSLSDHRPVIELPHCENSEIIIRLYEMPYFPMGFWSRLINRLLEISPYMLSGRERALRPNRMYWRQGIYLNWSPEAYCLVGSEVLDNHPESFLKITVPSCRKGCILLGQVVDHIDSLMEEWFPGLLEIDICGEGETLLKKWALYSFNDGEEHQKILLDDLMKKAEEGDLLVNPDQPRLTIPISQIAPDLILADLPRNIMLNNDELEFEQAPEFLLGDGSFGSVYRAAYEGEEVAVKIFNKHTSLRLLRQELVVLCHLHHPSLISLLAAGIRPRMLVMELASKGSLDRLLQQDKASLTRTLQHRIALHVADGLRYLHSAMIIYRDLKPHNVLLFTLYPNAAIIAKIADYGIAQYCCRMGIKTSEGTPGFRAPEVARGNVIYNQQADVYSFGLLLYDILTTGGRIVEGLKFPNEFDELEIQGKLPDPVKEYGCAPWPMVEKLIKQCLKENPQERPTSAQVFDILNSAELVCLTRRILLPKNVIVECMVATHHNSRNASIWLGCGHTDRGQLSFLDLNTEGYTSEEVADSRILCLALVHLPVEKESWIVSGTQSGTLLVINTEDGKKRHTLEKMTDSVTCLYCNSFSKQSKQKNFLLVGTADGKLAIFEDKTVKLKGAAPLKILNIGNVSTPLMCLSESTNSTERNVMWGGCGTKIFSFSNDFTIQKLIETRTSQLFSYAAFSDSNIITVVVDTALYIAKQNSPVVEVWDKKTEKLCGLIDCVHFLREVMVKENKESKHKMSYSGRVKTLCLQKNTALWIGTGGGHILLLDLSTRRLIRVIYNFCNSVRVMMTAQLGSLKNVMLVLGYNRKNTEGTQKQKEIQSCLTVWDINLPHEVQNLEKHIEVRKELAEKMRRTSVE
LRRK2 Kinase reactions were carried out in 384-well white polystyrene plates in a final volume of 6 μl using ADP-Glo™ Kinase Assay kit (Promega Corp.). Compound and substrates (LRRKtide peptide and ATP) in assay buffer were first dispensed in wells. Kinase reaction was then started by the addition of human recombinant LRRK2 protein. After 1 h-incubation at 37° C., the enzymatic reactions was stopped by the addition of 6 μl of ADP-Glo Reagent-1 and an additional 40-minutes incubation at 23° C. (residual ATP depletion). A final 30-minutes incubation after 12 μL reagent-2 addition (ADP to ATP conversion and luciferin/luciferase reaction) was performed before luminescent signal acquisition (EnVision™ multimode plate reader—PerkinElmer, Inc.). Data from 10 individual concentrations of tested compounds (N=2) were fitted (XLfit™—ID Business Solutions Ltd) to deliver IC50s (compound concentration leading to 50% inhibition of reference enzymatic activity).
The compounds are dissolved to 5 mM in DMSO. When needed, solutions are sonicated in a bath sonicator.
Table 2 provides the pIC50 values of the compounds according to the invention, obtained using the above mentioned kinase assay. Activities are represented as +++, ++ and +, having the following meanings: • «+++» means an IC50<10 nM • «++» means an IC50<100 nM • «+» means an IC50<1 μM • «−» means an IC50>1 μM
On the technique in general: In ADP-Glo the light output rises with the ADP produced.
Usually IC50 stands for the concentration that gives 50% inhibition. With `COC1CN(c2cc3nc(n2)OCCCOC[C@H](C)Oc2ccc4[nH]nc-3c4c2)C1` [Example 27, (13S)-4-(3-methoxyazetidin-1-yl)-13-methyl-7,11,14-trioxa-5,19,20,23-tetra azatetracyclo[13.5.2.1^2,6.0^18,21]tricosa-1(20),2(23),3,5,15(22),16,18(21) heptaene], the IC50 is less than 10 nM.
On to `C[C@H]1CCOCCOc2cccc(n2)-c2n[nH]c3ccc(cc23)O1` [Example 28, (13S)-13-methyl-7,10,14-trioxa-19,20,23-triazatetracyclo [13.5.2.1^2,6.0^18,21] tricosa-1(20),2(23),3,5,15(22),16,18(21)-heptaene], for which the 50% inhibitory concentration (IC50) was less than 10 nM.
Regarding `Cc1cc2nc(n1)OCCCOC[C@H](C)Oc1ccc3[nH]nc-2c3c1` [Example 29, (13S)-4,13-dimethyl-7,11,14-trioxa-5,19,20,23-tetraazatetracyclo[13.5.2.1^2,6.0^18,21]tricosa-1(20),2(23),3,5,15(22),16,18(21)-heptaene], the IC50 is less than 10 nM.
As for `C[C@H]1CCOCCOc2nccc(n2)-c2n[nH]c3ccc(cc23)N1` [Example 30, (13S)-13-methyl-7,10-dioxa-5,14,19,20,23-pentaazatetracyclo[13.5.2.1^2,6.0^18,21]tricosa-1(20),2(23),3,5,15(22),16,18(21)-heptaene], the IC50 was less than 100 nM.
On to `CC1(C)COCCCOc2ccc3[nH]nc(c3c2)-c2cnn(c2)C1` [Example 31, 7,7-dimethyl-9,13-dioxa-4,5,18,19-tetraazatetracyclo[12.5.2.1^2,5.0^17,20] docosa-1(19),2(22),3,14(21),15,17(20)-hexaene], for which the IC50 was less than 10 nM.
The value for `C[C@H]1CCOCCCn2cc(cn2)-c2n[nH]c3ccc(cc23)O1` [Example 32, (12S)-12-methyl-9,13-dioxa-4,5,18,19-tetraazatetracyclo[12.5.2.1^2,5.0^17,20] docosa-1(19),2(22),3,14(21),15,17(20)-hexaene] was less than 10 nM; that for `C[C@@H]1COCC[C@H](C)Oc2ccc3[nH]nc(c3c2)-c2cccc(n2)O1` [Example 33, (8R,13S)-8,13-dimethyl-7,10,14-trioxa-19,20,23-triazatetracyclo[13.5.2.1^2,6.0^18,21]tricosa-1(20),2(23),3,5,15(22),16,18(21)-heptaene] was less than 100 nM; that for `COC1CN(c2cc3nc(n2)OCCOCC[C@H](C)Nc2ccc4[nH]nc-3c4c2)C1` [Example 34, (13S)-4-(3-methoxyazetidin-1-yl)-13-methyl-7,10-dioxa-5,14,19,20,23-pentaazatetracyclo[13.5.2.1^2,6.0^18,21]tricosa-1(20),2,4,6(23),15(22),16, 18(21)-heptaene] was less than 10 nM.
In the case of `C[C@@H]1CCOCC[C@@H](C)n2cc(cn2)-c2n[nH]c3ccc(cc23)O1` [Example 35, (6R,12R)-6,12-dimethyl-9,13-dioxa-4,5,18,19-tetraazatetracyclo[12.5.2.1^2,5.0^17,20]docosa-1(19),2(22),3,14(21),15,17(20)-hexaene], the IC50 was less than 10 nM.
The value for `C[C@@H]1CCOCC[C@H](C)n2cc(cn2)-c2n[nH]c3ccc(cc23)O1` [Example 36, (6S,12R)-6,12-dimethyl-9,13-dioxa-4,5,18,19-tetraazatetracyclo[12.5.2.1^2,5.0^17,20]docosa-1(19),2(22),3,14(21),15,17(20)-hexaene] was less than 10 nM.
The value for `C[C@H]1CCn2cc(cn2)-c2n[nH]c3ccc(cc23)OCCCO1` [Example 37, (8S)-8-Methyl-9,13-dioxa-4,5,18,19-tetraazatetracyclo[12.5.2.1^2,5.0^17,20] docosa-1(19),2(22),3,14(21),15,17(20)-hexaene] was less than 10 nM.
Regarding `C[C@H]1CCOCC[C@H](C)n2cc(cn2)-c2n[nH]c3ccc(cc23)O1` [Example 38, (6S,12S)-6,12-dimethyl-9,13-dioxa-4,5,18,19-tetraazatetracyclo [12.5.2.1^2,5.0^17,20]docosa-1(19),2(22),3,14(21),15,17(20)-hexaene], the IC50 was less than 10 nM.
On to `C[C@H]1CCOCCOc2nc(cc(N3CCCC3)n2)-c2n[nH]c3ccc(cc23)N1` [Example 39, (13S)-13-methyl-4-(pyrrolidin-1-yl)-7,10-dioxa-5,14,19,20,23-pentaazatetra cyclo[13.5.2.1^2,6.0^18,21]tricosa-1(20),2(23),3,5,15(22),16,18(21)-heptaene], for which the IC50 is less than 10 nM.
The result for `Cc1cc2nc(n1)OCCOCC[C@H](C)Nc1ccc3[nH]nc-2c3c1` [Example 40, (13S)-4,13-dimethyl-7,10-dioxa-5,14,19,20,23-pentaazatetracyclo[13.5.2.1^2,6.0^18,21]tricosa-1(20),2(23),3,5,15(22),16,18(21)-heptaene] reads less than 10 nM; that for `C[C@@H]1CCOCCOc2cncc(n2)-c2n[nH]c3ccc(cc23)O1` [Example 41, (13R)-13-methyl-7,10,14-trioxa-4,19,20,23-tetraazatetracyclo[13.5.2.1^2,6.0^18,21]tricosa-1(20),2(23),3,5,15(22),16,18(21)-heptaene], less than 10 nM.
On to `C[C@@H]1CCOCCCn2cc(cn2)-c2n[nH]c3ccc(cc23)O1` [Example 42, (12R)-12-methyl-9,13-dioxa-4,5,18,19-tetraazatetracyclo [12.5.2.1^2,5.0^17,20]docosa-1(19),2(22),3,14(21),15,17(20)-hexaene], for which the IC50 is less than 10 nM.
For `C[C@H]1CCOCCCc2cccc(c2)-c2n[nH]c3ccc(cc23)O1` [Example 43, (13S)-13-methyl-10,14-dioxa-19,20-diazatetracyclo[13.5.2.1^2,6.0^18,21]tricosa-1(20),2(23),3,5,15(22),16,18(21)-heptaene], the IC50 is less than 10 nM.
Regarding `COC1CN(c2cc3nc(n2)O[C@H](C)COCC[C@H](C)Oc2ccc4[nH]nc-3c4c2)C1` [Example 44, (8R,13S)-4-(3-methoxyazetidin-1-yl)-8,13-dimethyl-7,10,14-trioxa-5,19,20, 23-tetraazatetracyclo[13.5.2.1^2,6.0^18,21]tricosa-1(20),2(23),3,5,15(22),16, 18(21)-heptaene], the IC50 was less than 10 nM.
With `C[C@@H]1CCOCCOc2nccc(n2)-c2n[nH]c3ccc(cc23)O1` [Example 45, (13R)-13-methyl-7,10,14-trioxa-5,19,20,23-tetraazatetracyclo[13.5.2.1^2,6.0^18,21]tricosa-1(20),2(23),3,5, 15(22),16,18(21)-heptaene], the IC50 was less than 10 nM.
The result for `C[C@H]1CCOC[C@H](C)Oc2nccc(n2)-c2n[nH]c3ccc(cc23)O1` [Example 46, (8S,13S)-8,13-dimethyl-7,10,14-trioxa-5,19,20,23-tetraazatetracyclo [13.5.2.1^2,6.0^18,21]tricosa-1(20),2(23),3,5,15(22),16,18(21)-heptaene] reads less than 100 nM; that for `C[C@H]1CCOC[C@H](C)Oc2cncc(n2)-c2n[nH]c3ccc(cc23)O1` [Example 47, (8S,13S)-8,13-dimethyl-7,10,14-trioxa-4,19,20,23-tetraazatetracyclo[13.5.2.1^2,6.0^18,21]tricosa-1(20),2(23),3,5,15(22),16,18(21)-heptaene], less than 100 nM; that for `C[C@H]1CCOCCCc2csc(n2)-c2n[nH]c3ccc(cc23)O1` [Example 48, (12S)-12-methyl-9,13-dioxa-3-thia-18,19,22-triazatetracyclo[12.5.2.1^2,5.0^17,20]docosa-1(19),2(22),4,14(21),15,17(20)-hexaene], less than 10 nM.
The value for `CO[C@@H]1CCN(c2cc3nc(n2)O[C@H](C)COCC[C@H](C)Oc2ccc4[nH]nc-3c4c2)C1` [Example 49, (8R,13S)-4-[(3R)-3-methoxypyrrolidin-1-yl]-8,13-dimethyl-7,10,14-trioxa-5,19,20,23-tetraazatetracyclo[13.5.2.1^2,6.0^18,21]tricosa-1(20),2(23),3,5, 15(22),16,18(21)-heptaene] was less than 10 nM; that for `C[C@@H]1COCCOCCn2cc(cn2)-c2n[nH]c3ccc(cc23)O1` [Example 50, (13R)-13-methyl-8,11,14-trioxa-4,5,19,20-tetraazatetracyclo[13.5.2.1^2,5.0^18,21]tricosa-1(20),2(23),3,15(22),16,18(21)-hexaene] was less than 10 nM; that for `C[C@H]1COc2cncc(n2)-c2n[nH]c3ccc(cc23)O[C@@H](C)CCO1` [Example 51, (9S,13S)-9,13-dimethyl-7,10,14-trioxa-4,19,20,23-tetraazatetracyclo[13.5.2.1^2,6.0^18,21]tricosa-1(20),2(23),3,5,15(22),16,18(21)-heptaene] was less than 100 nM.
Turning to `C[C@H]1COCC[C@H](C)Oc2ccc3[nH]nc(c3c2)-c2cnn(c2)C1` [Example 52, (7R,12S)-7,12-dimethyl-9,13-dioxa-4,5,18,19-tetraazatetracyclo[12.5.2.1^2,5.0^17,20]docosa-1(19),2(22),3,14(21),15,17(20)-hexaene], the IC50 is less than 10 nM.
Take `C[C@@H]1CCOC[C@H](C)Oc2ccc3[nH]nc(c3c2)-c2ccnc(n2)O1` [Example 53, (8R,13S)-8,13-dimethyl-7,11,14-trioxa-5,19,20,23-tetraazatetracyclo[13.5.2.1^2,6.0^18,21]tricosa-1(20),2(23),3,5,15(22),16,18(21)-heptaene]: the IC50 was less than 10 nM.

Values taken from patent US20240246992A1, “MACROCYCLIC LRRK2 KINASE INHIBITORS” (LES LABORATOIRES SERVIER, priority 2021, published 2024).
